The values that follow come from US7384931B2, “Constrained compounds as CGRP-receptor antagonists” (Bristol-Myers Squibb Company, priority 2004, dated 2008).

SMILES strings stand for the structures. Structures can show the parent of a compound that is named as a salt. Where only a bound is given, the exact number is not on record here.

Chain of CGRP receptor (Q16602 23-461): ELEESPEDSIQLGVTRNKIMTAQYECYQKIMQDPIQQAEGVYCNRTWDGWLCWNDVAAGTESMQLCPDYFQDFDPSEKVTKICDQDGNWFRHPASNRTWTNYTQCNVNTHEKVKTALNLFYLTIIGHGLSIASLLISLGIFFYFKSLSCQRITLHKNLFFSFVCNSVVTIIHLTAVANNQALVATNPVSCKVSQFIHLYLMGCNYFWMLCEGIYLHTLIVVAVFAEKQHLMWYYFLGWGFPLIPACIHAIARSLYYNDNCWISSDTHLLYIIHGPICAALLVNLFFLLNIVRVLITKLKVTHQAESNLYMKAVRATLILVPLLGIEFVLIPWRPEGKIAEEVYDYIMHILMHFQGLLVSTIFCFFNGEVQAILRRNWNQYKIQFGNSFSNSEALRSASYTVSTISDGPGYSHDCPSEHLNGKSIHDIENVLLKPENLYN
Chain of CGRP receptor (O60894 27-148): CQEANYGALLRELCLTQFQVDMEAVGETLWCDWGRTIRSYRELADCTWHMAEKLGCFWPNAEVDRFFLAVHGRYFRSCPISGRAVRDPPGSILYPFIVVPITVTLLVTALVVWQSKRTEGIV

This assay concerns the target CGRP receptor (Homo sapiens, UniProt O60894+Q16602). Nature of the assay: CGRP radioligand binding assay ([125I]-CGRP displacement, SK-N-MC homogenate). On the set-up: endogenous in cells; host or cells: SK-N-MC cells (homogenate/membrane pellet). The following applies: displacement of [125I]-CGRP, room temperature 2 h. As for the experimental part: CGRP Binding Assay. Tissue Culture. SK—N-MC cells were grown at 37° C. in 5% CO2 as a monolayer in medium consisting of MEM with Earle's salts and L-glutamine (Gibco) supplemented with 10% fetal bovine serum (Gibco). Cell Pellets. The cells were rinsed twice with phosphate-buffered saline (155 mM NaCl, 3.3 mM Na2HPO4, 1.1 mM KH2PO4, pH 7.4), and incubated for 5-10 min. at 4° C. in hypotonic lysis buffer consisting of 10 mM Tris (pH 7.4) and 5 mM EDTA. The cells were transferred from plates to polypropylene tubes (16×100 mm) and homogenized using a polytron. Homogenates were centrifuged at 32,000×g for 30 min. The pellets were resuspended in cold hypotonic lysis buffer with 0.1% mammalian protease inhibitor cocktail (Sigma) and assayed for protein concentration. The SK—N-MC homogenate was then aliquoted and stored at −80° C. until needed.
Radioligand Binding Assay. The compounds of invention were solubilized and carried through serial dilutions using 100% DMSO. Aliquots from the compound serial dilutions were further diluted 25 fold into assay buffer (50 mM Tris-Cl pH 7.5, 5 mM MgCl2, 0.005% Triton X-100) and transferred (volume 50 μl) into 96 well assay plates. [^125I]-CGRP (Amersham Biosciences) was diluted to 60 pM in assay buffer and a volume of 50 μl was added to each well. SK—N-MC pellets were thawed, diluted in assay buffer with fresh 0.1% mammalian protease inhibitor cocktail (Sigma), and homogenized again. SK—N-MC homogenate (5 μg/well) was added in a volume of 100 μl. The assay plates were then incubated at room temperature for 2 h. Assays were stopped by addition of excess cold wash buffer (20 mM Tris-Cl pH 7.5, 0.1% BSA) immediately followed by filtration over glass fiber filters (Whatman GF/B) previously soaked in 0.5% PEI. Non-specific binding was defined with 1 μM beta-CGRP. Protein bound radioactivity was determined using a gamma or scintillation counter. The IC50 was defined as the concentration of a compound of invention required to displace 50% of radioligand binding.
Regarding `CC(C)(C)CN1Cc2c(ccc3[nH]ncc23)C[C@@H](NC(=O)N2CCC(C3Cc4ccccc4NC3=O)CC2)C1=O` (stereo partly drawn) [Example 67, N-((R)-9-neopentyl-8-oxo-3,6,7,8,9,10-hexahydroazepino[3,4-e]indazol-7-yl)-4-(2-oxo-1,2,3,4-tetrahydroquinolin-3-yl)piperidine-1-carboxamide], the IC50 was in the range of 10 to 100 nM.

Take `CC(C)(C)CN1Cc2c(cc(Cl)c3[nH]ncc23)C[C@@H](CC(=O)Nc2ccc3c(c2)CC2(C3)NC(=O)NC2=O)C1=O` (mixture of isomers) [Example 87, (±)-1-[[(7S)-4-chloro-9-(2,2-dimethylpropyl)-3,6,7,8,9,10-hexahydro-8-oxoazepino[3,4-e]indazol-7-yl]acetyl]-Amino-spiro[imidazolidine-4,2′-indane]-2,5-dione]: the 50% inhibitory concentration (IC50) lay in the range of 10 to 100 nM.

As for `CC(C)(C)CN1Cc2c(cc(Cl)c3[nH]ncc23)C[C@@H](CC(=O)Nc2ccc3c(c2)CCC2(C3)NC(=O)NC2=O)C1=O` (mixture of isomers) [Example 86, (±)-1-[[(7S)-4-chloro-9-(2,2-dimethylpropyl)-3,6,7,8,9,10-hexahydro-8-oxoazepino[3,4-e]indazol-7-yl]yacetyl]-Amino-3′,4′-dihydro-^1H-spiro[imidazolidine-4,2′naphthalene]-2,5-dione], the IC50 lay in the range of 0.1 to 10 nM.

On to `CC(C)c1cc2c(c3cn[nH]c13)CN(CC(C)(C)C)C(=O)[C@H](CC(=O)N1CCC(c3cc4ccccc4[nH]c3=O)CC1)C2` [Example 104, (S)-4-isopropyl-9-neopentyl-7-(2-oxo-2-(4-(2-oxo-1,2-dihydroquinolin-3-yl)piperidin-1-yl)ethyl)-6,7,9,10-tetrahydroazepino[3,4-e]indazol-8(3H)-one], for which the IC50 was in the range of 10 to 100 nM.

Compound `CN1Cc2c(cc(Br)c(O)c2Br)CC(NC(=O)N2CCC(N3Cc4ccccc4NC3=O)CC2)C1=O` (stereo not shown) [Example 34, 4-(2-Oxo-1,4-dihydro-2H-quinazolin-3-yl)-piperidine-1-carboxylic acid (7,9-dibromo-8-hydroxy-2-methyl-3-oxo-2,3,4,5-tetrahydro-1H-benzo[c]azepin-4-yl)-amide] came in with an IC50 of 100 to 1000 nM.

Consider `CN(C)CCN1Cc2c(ccc3[nH]ncc23)C[C@@H](NC(=O)N2CCC(N3Cc4ccccc4NC3=O)CC2)C1=O` [Example 5, 4-(2-Oxo-1,4-dihydro-2H-quinazolin-3-yl)-piperidine-1-carboxylic acid [9-(2-dimethylamino-ethyl)-8-oxo-3,6,7,8,9,10-hexahydro-2,3,9-triaza-(R)-cyclohepta[e]inden-7-yl]-amide], for which the IC50 lay in the range of 100 to 1000 nM.

Compound `Cc1cc2c(c3cn[nH]c13)CN(CC(F)(F)F)C(=O)[C@H](CC(=O)N1CCC(c3cc4ccccc4[nH]c3=O)CC1)C2` [Example 102, (S)-4-methyl-7-(2-oxo-2-(4-(2-oxo-1,2-dihydroquinolin-3-yl)piperidin-1-yl)ethyl)-9-(2,2,2-trifluoroethyl)-6,7,9,10-tetrahydroazepino[3,4-e]indazol-8(3H)-one] yielded a half-maximal inhibitory concentration (IC50) of 0.1 to 10 nM.

For `O=C(C[C@@H]1Cc2cc(Cl)c3[nH]ncc3c2CN(CC(F)(F)F)C1=O)N1CCC(N2Cc3ccccc3NC2=O)CC1` [Example 75, 1-[[(7S)-4-Chloro-3,6,7,8,9,10-hexahydro-8-oxo-9-(2,2,2-trifluoroethly)azepino[3,4-e]indazol-7-yl]acetyl]-4-(1,4-dihydro-2-oxo-3(2H)-quinazolinyl)-piperidine], the IC50 fell in the range of 0.1 to 10 nM.

Compound `O=C1Nc2ccccc2C2(CCN(C(=O)N[C@@H]3Cc4ccc5[nH]ncc5c4CN(CCN4CCOCC4)C3=O)CC2)N1` [Example 8, ′H-Spiro[piperidine-4,4′-quinazolin]-2′(3′H)-one-1-carboxylic acid [9-(2-morpholin-4-yl-ethyl)-8-oxo-3,6,7,8,9,10-hexahydro-2,3,9-triaza-(R)-cyclohepta[e]inden-7-yl]-amide] registered a half-inhibitory concentration (IC50) of more than 1000 nM.

In turn, `CC(C)CN1Cc2c(ccc3[nH]ncc23)CC(NC(=O)N2CCC3(CC2)NC(=O)Nc2ccccc23)C1=O` (stereo not shown) [Example 25, N-[9-(2-methylpropyl)-8-oxo-3,6,7,8,9,10-hexahydroazepino[3,4-e]indazol-7-yl]-2′-oxo-2′,3′-dihydro-1H, 1′H-spiro[piperidine-4,4′-quinazoline]-1-carboxamide] yielded an IC50 of 100 to 1000 nM.

In turn, `O=C(C[C@@H]1Cc2cc(Cl)c3[nH]ncc3c2CN(CC(F)(F)F)C1=O)N1CCC(c2cc3ccccc3[nH]c2=O)CC1` [Example 90, (S)-4-chloro-7-(2-oxo-2-(4-(2-oxo-1,2-dihydroquinolin-3-yl)piperidin-1-yl)ethyl)-9-(2,2,2-trifluoroethyl)-6,7,9,10-tetrahydroazepino[3,4-e]indazol-8(3H)-one] returned an IC50 of 0.1 to 10 nM.

In the case of `O=C(C[C@@H]1Cc2cc(Br)c3[nH]ncc3c2CN(CC(F)(F)F)C1=O)N1CCC(c2cc3cccnc3[nH]c2=O)CC1` [Example 96, (S)-4-bromo-7-(2-oxo-2-(4-(2-oxo-1,2-dihydro-1,8-naphthyridin-3-yl)piperidin-1-yl)ethyl)-9-(2,2,2-trifluoroethyl)-6,7,9,10-tetrahydroazepino[3,4-e]indazol-8(3H)-one], the half-inhibitory concentration (IC50) lay within 0.1 to 10 nM.

As for `CC(C)(C)CN1Cc2c(ccc3[nH]ncc23)C[C@@H](NC(=O)N2CCC(c3cc(-c4ccccc4)no3)CC2)C1=O` [Example 65, (R)-N-(9-neopentyl-8-oxo-3,6,7,8,9,10-hexahydroazepino[3,4-e]indazol-7-yl)-4-(3-phenylisoxazol-5-yl)piperidine-1-carboxamide], the IC50 was more than 1000 nM.

`O=C(C[C@@H]1Cc2ccc3[nH]ncc3c2CN(Cc2ccccc2)C1=O)N1CCC(N2Cc3ccccc3NC2=O)CC1` [Example 38, (S)-9-Benzyl-7-(2-oxo-2-(4-(2-oxo-1,2-dihydroquinazolin-3(4H)-yl)piperidin-1-yl)ethyl)-6,7,9,10-tetrahydroazepino[3,4-e]indazol-8(3H)-one] came in with an IC50 of 100 to 1000 nM.

Compound `O=C(N[C@@H]1Cc2ccc3[nH]ncc3c2CN(C2CCNC2)C1=O)N1CCC(N2Cc3ccccc3NC2=O)CC1` (stereo partly drawn) [Example 63, 4-(2-oxo-1,2-dihydroquinazolin-3(4H)-yl)-N-((R)-8-oxo-9-(pyrrolidin-3-yl)-3,6,7,8,9,10-hexahydroazepino[3,4-e]indazol-7-yl)piperidine-1-carboxamide] came in with an IC50 of 100 to 1000 nM.

As to `Cc1c(N)ccc2c1CN(Cc1ccccc1)C(=O)[C@H](NC(=O)N1CCC(N3Cc4ccccc4NC3=O)CC1)C2` [Example 56, trifluoroacetate], the IC50 lay in the range of 100 to 1000 nM.

`O=C(N[C@@H]1Cc2ccc3[nH]ncc3c2CN(C2CCNCC2)C1=O)N1CCC(N2Cc3ccccc3NC2=O)CC1` [Example 18, 4-(2-Oxo-1,4-dihydro-2H-quinazolin-3-yl)-piperidine-1-carboxylic acid (8-oxo-9-piperidin-4-yl-3,6,7,8,9,10-hexahydro-2,3,9-triaza-(R)-cyclohepta[e]inden-7-yl)-amide] had a half-inhibitory concentration (IC50) of 100 to 1000 nM.

Turning to `CC(C)(C)CN1Cc2c(ccc3[nH]ncc23)C[C@@H](CCN2CCC(N3Cc4ccccc4NC3=O)CC2)C1=O` [Example 64, (S)-9-neopentyl-7-(2-(4-(2-oxo-1,2-dihydroquinazolin-3(4H)-yl)piperidin-1-yl)ethyl)-6,7,9,10-tetrahydroazepino[3,4-e]indazol-8(3H)-one], the IC50 was more than 1000 nM.

Compound `C=C(C)c1cc2c(c3cn[nH]c13)CN(CC(F)(F)F)C(=O)[C@H](CC(=O)N1CCC(c3cc4ccccc4[nH]c3=O)CC1)C2` [Example 108, (S)-7-(2-oxo-2-(4-(2-oxo-1,2-dihydroquinolin-3-yl)piperidin-1-yl)ethyl)-4-(prop-1-en-2-yl)-9-(2,2,2-trifluoroethyl)-6,7,9,10-tetrahydroazepino[3,4-e]indazol-8(3H)-one] registered an IC50 of 10 to 100 nM.

The compound `Cc1cc2c(c3cn[nH]c13)CN(CC(C)(C)C)C(=O)[C@H](CC(=O)N1CCC(c3cc4ccccc4[nH]c3=O)CC1)C2` [Example 100, (S)-4-methyl-9-neopentyl-7-(2-oxo-2-(4-(2-oxo-1,2-dihydroquinolin-3-yl)piperidin-1-yl)ethyl)-6,7,9,10-tetrahydroazepino[3,4-e]indazol-8(3H)-one] gave a half-inhibitory concentration (IC50) of 0.1 to 10 nM.

Compound `CC(C)(C)CN1Cc2c(ccc3[nH]ncc23)CC(N/C(=N/C#N)N2CCC(N3Cc4ccccc4NC3=O)CC2)C1=O` (stereo not shown) [Example 88, (E, Z)-N′-cyano-N-(9-neopentyl-8-oxo-3,6,7,8,9,10-hexahydroazepino[3,4-e]indazol-7-yl)-4-(2-oxo-1,2-dihydroquinazolin-3(4H)-yl)piperidine-1-carboxamidine] had an IC50 of 0.1 to 10 nM.

For the compound `O=C1Nc2ccccc2C2(CCN(C(=O)NC3Cc4ccc5[nH]ncc5c4CN(Cc4ccncc4)C3=O)CC2)N1` (stereo not shown) [Example 29, N-[9-pyridin-4-ylmethyl-8-oxo-3,6,7,8,9,10-hexahydroazepino[3,4-e]indazol-7-yl]-2′-oxo-2′,3′-dihydro-1H,1′H-spiro[piperidine-4,4′-quinazoline]-1-carboxamide], the half-maximal inhibitory concentration (IC50) was 100 to 1000 nM.
